Experimental data: patent US20110224197A1, “PYRIMIDINES AND PYRIDINES USEFUL AS INHIBITORS OF PROTEIN KINASES” (Vertex Pharmaceuticals Incorporated, priority 2008, published 2011)

Legend:
GSK-3α/β pTYR = assay: pTYR biomarker analysis in brain, Post Stroke Model II; assay type: in vivo, rat; conditions: all doses, termination of study
Method: To track the activity of Compound I-37 in the CNS of rats subjected to MCAO, brains were removed and protein lysate was obtained (as described herein) from both vehicle treated and compound treated animals at the termination of the study. Lysates were analyzed by Western blot and probed for GSK-3α/β pTYR levels.
Protein lysate is obtained from the brains of all vehicle and compound-treated animals and is processed for biomarker analysis of GSK3α/β pTYR and β-catenin by Western blot assay to ensure compound activity on the target.

CRMP2 = CRMP2 Phosphorylation Assay; assay type: cell-based, rat; conditions: E16 hippocampal neurons treated for seven days
Method: GSK-3 phosphorylation regulates CRMP2 which is involved in the control of axon outgrowth and branching (Yoshimura et al., 2005 Cell, Kim et al. 2006 Neuron). Phosphorylation of CRMP2 by GSK-3 reduces CRMP2 binding to microtubules and thereby reduces axon elongation and branching. Conversely, inhibition of GSK-3, especially at levels that selectively affect TYR residue autophosphorylation, enhances these phenotypes. Compounds are tested in E16 rat hippocampal or cortical neurons to determine the ability to increase the level of axonal branching.
1 mg/ml stock of PDL is diluted into 100 μg/mL in DI water. The glass coverslips are coated for at least 1 hour at 37° C. prior to doing the dissection. PDL is aspirated and the plates are rinsed with PBS and air-dried in hood.
Cortical or hippocampal lobes are combined with 9 mL of Base media (Neurobasal+Pen/Strep) and put on ice. 1 mL of 10× trypsin solution is added and the Mixture is swirled gently. The tissue is then digested via incubation in a 37° C. waterbath for 20 minutes. After 20 minutes, 10 μL/mL DNase (100 μL DNase) is added and the mixture is incubated for another 5 minutes.
The cells are spun at 1000 rpm for 1 minute. The enzyme solution is then removed without removing any of the brain fragments sitting on the bottom. […] The cells are counted in a hemacytometer and seeded at 50,000 cells/well in a 12 well plate. […]

[1] = test system: human umbilical vein endothelial cells (HUVEC); assay: In vitro model of angiogenesis using HUVEC and skin fibroblasts; assay type: cell-based; conditions: HUVEC cultures
Description: Compounds are screened for the ability to enhance angiogenesis in human umbilical vein endothelial cells (HUVEC). This method, adapted from Nakatsu et al., Microvas. Res. 2003, describes a protocol that recapitulates the major events essential for new vessel growth: budding, cell migration, cell proliferation, lumen formation, branching, and anastomosis.
HUVEC are used between P3 and P4. HUVEC are mixed with dextran coated cytodex 3 micro-carriers (Amersham Pharmacia) at a concentration of 400 HUVEC per bead in 1 ml of EGM-2 (2% FBS) medium (Clonetics). Beads with cells are then shaken gently every 20 minutes for 4 hours at 37° C. and 5% CO2. After incubating, beads with cells are transferred to a T-25 tissue culture flask and left for 12-16 hours in 5 ml of EGM-2 at 37° C. and 5% CO2.
The following day, beads with cells are washed three times with EGM-2 and re-suspended at a concentration of 200 cell-coated beads/ml in 2.5 mg/ml of fibrinogen (Sigma) with 0.15 U/ml of aprotinin (Sigma) at a pH of 7.4.
500 uL of fibrinogen/bead solution is then added to 0.625 U of thrombin (Sigma) in one well of a 24 well tissue culture plate. Fibrinogen/Bead solution is allowed to clot for 5 minutes at room temperature and then at 37° C. and 5% CO2 for 20 minutes. 1 mL of EGM-2 with 0.15 U/mL of aprotinin is then added to each well and equilibrated with the fibrin clot for 30 minutes at 37° C. and 5% CO2.
Next, media is removed from the well and replaced with 1 mL of fresh medium. […]
Angiogenesis is scored by quantification of images captured on an inverted microscope at 10× and 20× magnification for vessel length, number of vessels and branches per bead using NIH Image J software. […] YFP positive HUVEC are then cultured as described above and quantification of vessel formation is determined by calculating the area under the threshold fluorescence using NIH Image J software. In both cases, enhanced angiogenesis is determined by comparing compound treated cultures with a DMSO control culture at the same time point.

[2] = concentrations shown to induce β-catenin

Compound: Cc1nc(-c2ccccc2Cl)nc(Nc2n[nH]c3ncc(F)cc23)c1C [Compound I-37, N-(2-(2-chlorophenyl)-5,6-dimethylpyrhnidin-4-yl)-5-fluoro-1H-pyrazolo[3,4-b]pyridin-3-amine]
- pTYR signal compared to vehicle treated rats (GSK-3α/β pTYR): significant reduction
- Inhibition of GSK-3 phosphorylation of substrate CRMP-2 (CRMP2): correlated with inhibition of GSK-3 pTYR
- vessel and network formation ([1]; 10 nM, 7 days): increase vessel and network formation
- cell proliferation [1, 2]: increased cell proliferation was observed
- vessel formation [1, 2]: vessel formation was inhibited
